Experimental data reported in BindingDB's records for doi:10.1021/np4008798 (The Chinese University of Hong Kong, 2014).

Experiment: Inhibition of tyrosinase in mouse Melan-a cells assessed as decrease in L-DOPA Vmax at 60 uM by Lineweaver-Burk plot

Structure (SMILES): OC[C@H]1O[C@@H](Oc2c(O)cc(O)cc2/C=C/c2ccc(O)cc2)[C@H](O)[C@@H](O)[C@@H]1O
- Ki: 3.1 mM
